Patent US20250176599A1, “FLAVOR COMPOSITION AND FOOD AND BEVERAGE” (TAKASAGO INTERNATIONAL CORPORATION, priority 2021, published 2025)

How the values were obtained:
[1] = Sensory evaluation of aqueous solution IV containing 1,5-octadien-3-one 100 ppt: off-flavor intensity and masking component intensity; conditions: aqueous solution IV, 1,5-octadien-3-one 100 ppt, average score 0-4
How it was run: (§1)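 Nootkatone added to degradation-component solutions in ion-exchanged water and scored by eight experienced panelists. Off-flavor rated 0–4 relative to unmasked solution (4) and plain water (0). Masking-component intensity rated on an absolute 0–4 scale.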

[2] = Sensory evaluation of aqueous solution I containing (E)-2-nonenal 1 ppb: off-flavor intensity and masking component intensity; conditions: (E)-2-nonenal 1 ppb, average score 0-4
How it was run: as §1

[3] = Sensory evaluation of aqueous solution V containing 1-octen-3-ol 10 ppb: off-flavor intensity and masking component intensity; conditions: 1-octen-3-ol 10 ppb, average score 0-4
How it was run: as §1

[4] = Overall conclusion of the sensory evaluation across aqueous solutions I to VI
How it was run: as §1

[5] = Sensory evaluation of aqueous solution II containing (E)-2-octenal 10 ppb: off-flavor intensity and masking component intensity; conditions: (E)-2-octenal 10 ppb, average score 0-4
How it was run: as §1

[6] = Sensory evaluation of aqueous solution VI containing 1,5-octadien-3-ol 10 ppb: off-flavor intensity and masking component intensity; conditions: aqueous solution VI, 1,5-octadien-3-ol 10 ppb, average score 0-4
How it was run: as §1

[7] = Sensory evaluation of aqueous solution III containing 1-octen-3-one 1 ppb: off-flavor intensity and masking component intensity; conditions: 1-octen-3-one 1 ppb, average score 0-4
How it was run: as §1

C/C=C/C(=O)C1=C(C)C=CCC1(C)C [β-Damascenone, β-damascenone]
Off-Flavor Intensity ([1]; 0.001 ppt added): 3.5 points | Off-Flavor Intensity ([1]; 0.01 ppt added): 3.4 points | Off-Flavor Intensity ([1]; 0.1 ppt added): 3.3 points | Off-Flavor Intensity ([1]; 1 ppb added): 2.3 points | Off-Flavor Intensity ([1]; 1 ppt added): 3.1 points | Off-Flavor Intensity ([1]; 10 ppb added): 1.6 points | Off-Flavor Intensity ([1]; 10 ppt added): 2.8 points | Off-Flavor Intensity ([1]; 100 ppb added): 1.6 points | Off-Flavor Intensity ([1]; 100 ppt added): 2.5 points | Off-Flavor Intensity ([2]; 0.001 ppt added): 3.5 points | Off-Flavor Intensity ([2]; 0.01 ppt added): 3.5 points | Off-Flavor Intensity ([2]; 0.1 ppt added): 2.9 points | Off-Flavor Intensity ([2]; 1 ppb added): 1.8 points | Off-Flavor Intensity ([2]; 1 ppt added): 2.5 points | Off-Flavor Intensity ([2]; 10 ppb added): 1.4 points | Off-Flavor Intensity ([2]; 10 ppt added): 2.4 points | Off-Flavor Intensity ([2]; 100 ppb added): 1.0 points | Off-Flavor Intensity ([2]; 100 ppt added): 2.3 points | Off-Flavor Intensity ([3]; 0.001 ppt added): 3.4 points | Off-Flavor Intensity ([3]; 0.01 ppt added): 3.1 points | Off-Flavor Intensity ([3]; 0.1 ppt added): 2.6 points | Off-Flavor Intensity ([3]; 1 ppb added): 1.5 points | Off-Flavor Intensity ([3]; 1 ppt added): 2.4 points | Off-Flavor Intensity ([3]; 10 ppb added): 1.1 points | Off-Flavor Intensity ([3]; 10 ppt added): 2.4 points | Off-Flavor Intensity ([3]; 100 ppb added): 0.8 points | Off-Flavor Intensity ([3]; 100 ppt added): 2.0 points | concentration that masks the off-flavor and does not affect the flavor of the food and/or beverage itself, lower limit [4]: ≥ 0.001 ppt | concentration that masks the off-flavor and does not affect the flavor of the food and/or beverage itself, upper limit [4]: ≤ 10 ppb | Off-Flavor Intensity ([5]; 0.001 ppt added): 2.9 points | Off-Flavor Intensity ([5]; 0.01 ppt added): 2.8 points | Off-Flavor Intensity ([5]; 0.1 ppt added): 2.4 points | Off-Flavor Intensity ([5]; 1 ppb added): 1.1 points | Off-Flavor Intensity ([5]; 1 ppt added): 2.1 points | Off-Flavor Intensity ([5]; 10 ppb added): 0.9 points | Off-Flavor Intensity ([5]; 10 ppt added): 1.9 points | Off-Flavor Intensity ([5]; 100 ppb added): 0.8 points | Off-Flavor Intensity ([5]; 100 ppt added): 1.4 points | Off-Flavor Intensity ([6]; 0.001 ppt added): 2.6 points | Off-Flavor Intensity ([6]; 0.01 ppt added): 2.1 points | Off-Flavor Intensity ([6]; 0.1 ppt added): 1.9 points | Off-Flavor Intensity ([6]; 1 ppb added): 0.6 points | Off-Flavor Intensity ([6]; 1 ppt added): 1.7 points | Off-Flavor Intensity ([6]; 10 ppb added): 0.2 points | Off-Flavor Intensity ([6]; 10 ppt added): 1.3 points | Off-Flavor Intensity ([6]; 100 ppb added): 0.0 points | Off-Flavor Intensity ([6]; 100 ppt added): 0.9 points | Off-Flavor Intensity ([7]; 0.001 ppt added): 3.6 points | Off-Flavor Intensity ([7]; 0.01 ppt added): 3.6 points | Off-Flavor Intensity ([7]; 0.1 ppt added): 3.3 points | Off-Flavor Intensity ([7]; 1 ppb added): 1.9 points | Off-Flavor Intensity ([7]; 1 ppt added): 2.9 points | Off-Flavor Intensity ([7]; 10 ppb added): 1.4 points | Off-Flavor Intensity ([7]; 10 ppt added): 2.5 points | Off-Flavor Intensity ([7]; 100 ppb added): 1.3 points | Off-Flavor Intensity ([7]; 100 ppt added): 2.3 points

CC(=O)/C=C/C1=C(C)CCCC1(C)C [β-Ionone, β-ionone]
Off-Flavor Intensity ([1]; 0.01 ppt added): 3.8 points | Off-Flavor Intensity ([1]; 0.1 ppt added): 3.5 points | Off-Flavor Intensity ([1]; 1 ppb added): 2.5 points | Off-Flavor Intensity ([1]; 1 ppm added): 1.0 points | Off-Flavor Intensity ([1]; 1 ppt added): 3.5 points | Off-Flavor Intensity ([1]; 10 ppb added): 2.3 points | Off-Flavor Intensity ([1]; 10 ppt added): 3.4 points | Off-Flavor Intensity ([1]; 100 ppb added): 1.6 points | Off-Flavor Intensity ([1]; 100 ppt added): 3.0 points | Off-Flavor Intensity ([2]; 0.01 ppt added): 3.4 points | Off-Flavor Intensity ([2]; 0.1 ppt added): 3.1 points | Off-Flavor Intensity ([2]; 1 ppb added): 1.8 points | Off-Flavor Intensity ([2]; 1 ppm added): 0.5 points | Off-Flavor Intensity ([2]; 1 ppt added): 2.6 points | Off-Flavor Intensity ([2]; 10 ppb added): 1.4 points | Off-Flavor Intensity ([2]; 10 ppt added): 2.6 points | Off-Flavor Intensity ([2]; 100 ppb added): 0.8 points | Off-Flavor Intensity ([2]; 100 ppt added): 2.3 points | Off-Flavor Intensity ([3]; 0.01 ppt added): 3.3 points | Off-Flavor Intensity ([3]; 0.1 ppt added): 3.0 points | Off-Flavor Intensity ([3]; 1 ppb added): 1.8 points | Off-Flavor Intensity ([3]; 1 ppm added): 0.3 points | Off-Flavor Intensity ([3]; 1 ppt added): 2.5 points | Off-Flavor Intensity ([3]; 10 ppb added): 1.4 points | Off-Flavor Intensity ([3]; 10 ppt added): 2.5 points | Off-Flavor Intensity ([3]; 100 ppb added): 0.8 points | Off-Flavor Intensity ([3]; 100 ppt added): 2.3 points | concentration that masks the off-flavor and does not affect the flavor of the food and/or beverage itself, lower limit [4]: ≥ 0.1 ppt | concentration that masks the off-flavor and does not affect the flavor of the food and/or beverage itself, upper limit [4]: ≤ 100 ppb | Off-Flavor Intensity ([5]; 0.01 ppt added): 3.1 points | Off-Flavor Intensity ([5]; 0.1 ppt added): 3.0 points | Off-Flavor Intensity ([5]; 1 ppb added): 1.6 points | Off-Flavor Intensity ([5]; 1 ppm added): 0.1 points | Off-Flavor Intensity ([5]; 1 ppt added): 2.6 points | Off-Flavor Intensity ([5]; 10 ppb added): 1.4 points | Off-Flavor Intensity ([5]; 10 ppt added): 2.3 points | Off-Flavor Intensity ([5]; 100 ppb added): 0.8 points | Off-Flavor Intensity ([5]; 100 ppt added): 2.0 points | Off-Flavor Intensity ([6]; 0.01 ppt added): 3.3 points | Off-Flavor Intensity ([6]; 0.1 ppt added): 2.9 points | Off-Flavor Intensity ([6]; 1 ppb added): 1.8 points | Off-Flavor Intensity ([6]; 1 ppm added): 0.4 points | Off-Flavor Intensity ([6]; 1 ppt added): 2.6 points | Off-Flavor Intensity ([6]; 10 ppb added): 1.5 points | Off-Flavor Intensity ([6]; 10 ppt added): 2.3 points | Off-Flavor Intensity ([6]; 100 ppb added): 0.8 points | Off-Flavor Intensity ([6]; 100 ppt added): 2.1 points | Off-Flavor Intensity ([7]; 0.01 ppt added): 3.5 points | Off-Flavor Intensity ([7]; 0.1 ppt added): 3.3 points | Off-Flavor Intensity ([7]; 1 ppb added): 2.0 points | Off-Flavor Intensity ([7]; 1 ppm added): 0.8 points | Off-Flavor Intensity ([7]; 1 ppt added): 3.0 points | Off-Flavor Intensity ([7]; 10 ppb added): 1.6 points | Off-Flavor Intensity ([7]; 10 ppt added): 2.8 points | Off-Flavor Intensity ([7]; 100 ppb added): 1.4 points | Off-Flavor Intensity ([7]; 100 ppt added): 2.5 points
